Test results from US7151105B2, “Inhibitors of Hepatitis C virus RNA-dependent RNA polymerase, and compositions and treatments using the same” (Agouron Pharmaceuticals, Inc., priority 2004, dated 2006).

molecular target: T1, Recombinant HCV polymerase (Hepatitis C virus genotype 1b, UniProt P26663); assay: biochemical; details: inhibition of polymerase-directed transcription; 30 min at 30° C; 30 nM enzyme; cpm data in triplicate
T1 construct: Recombinant HCV polymerase was tested for its ability to perform primer/template-directed transcription
T1 sequence (P26663 2420-3010): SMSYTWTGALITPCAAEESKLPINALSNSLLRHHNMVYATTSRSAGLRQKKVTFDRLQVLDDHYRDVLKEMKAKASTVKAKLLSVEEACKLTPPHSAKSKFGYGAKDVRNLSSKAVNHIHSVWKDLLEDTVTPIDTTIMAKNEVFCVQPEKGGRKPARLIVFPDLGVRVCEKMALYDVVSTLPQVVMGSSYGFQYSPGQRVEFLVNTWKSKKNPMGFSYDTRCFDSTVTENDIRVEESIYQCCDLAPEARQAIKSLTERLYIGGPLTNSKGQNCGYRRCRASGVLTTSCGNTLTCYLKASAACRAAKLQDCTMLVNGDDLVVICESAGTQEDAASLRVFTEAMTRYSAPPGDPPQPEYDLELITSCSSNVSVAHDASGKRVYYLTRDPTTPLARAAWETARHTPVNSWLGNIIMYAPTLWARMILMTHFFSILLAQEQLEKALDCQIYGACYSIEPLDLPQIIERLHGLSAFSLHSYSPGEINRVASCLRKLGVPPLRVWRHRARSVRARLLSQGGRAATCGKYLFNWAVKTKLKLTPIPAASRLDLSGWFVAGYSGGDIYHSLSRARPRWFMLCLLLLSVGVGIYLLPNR
Summary of the method: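 Primer/template-directed RNA synthesis by 2.5 pmol HCV polymerase on poly(rC)300/biotin-dG12 with 1 μM GTP plus α-32P-GTP, in pH 7.2 Tris buffer with 10 mM MgCl2, for 30 min at 30 °C. Products were filter-captured and counted, with 1% DMSO final. IC50 was fitted from triplicate cpm; percent inhibition was reported where IC50 was impractical.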

Row | SMILES | IC50 [nM]
1 | CCc1cc(CCC2(C3CCCC3)CC(O)=C(Cc3nc4nc(C)cc(C)n4n3)C(=O)O2)ccc1CNS(C)(=O)=O (single isomer, unassigned; enantiomer 1) [A(129), Enantiomer 1 of N-[4-(2-{2-cyclopentyl-5-[(5,7-dimethyl[1,2,4]triazolo[1,5-a]pyrimidin-2-yl)methyl]-4-hydroxy-6-oxo-3,6-dihydro-2H-pyran-2-yl}ethyl)-2-ethylbenzyl]methanesulfonamide] | 4
2 | CCS(=O)(=O)N[C@H](C)c1ccc(CCC2(C3CCCC3)CC(O)=C(Cc3nc4nc(C)cc(C)n4n3)C(=O)O2)cc1 (stereo partly drawn) [A(81), N-{(1R)-1-[4-(2-{2-cyclopentyl-5-[(5,7-dimethyl[1,2,4]triazolo[1.5-a]pyrimidin-2-yl)methyl]-4-hydroxy-6-oxo-3,6-dihydro-2H-pyran-2-yl}ethyl)phenyl]ethyl}ethanesulfonamide] | 120
3 | CCc1cc(CCC2(C3CCCC3)CC(O)=C(Cc3nc4nc(C)cc(C)n4n3)C(=O)O2)ccc1OCCN(C)C(=O)OC(C)(C)C (stereo not drawn) [A(69), tert-Butyl 2-[4-(2-{2-cyclopentyl-5-[(5,7-dimethyl[1,2,4]triazolo[1,5-a]pyrimidin-2-yl)methyl]-4-hydroxy-6-oxo-3,6-dihydro-2H-pyran-2-yl}ethyl)2-ethylphenoxy]ethyl(methyl)carbamate] | 15
4 | Cn1nc(C(F)(F)F)c(CC2=C(O)CC(CCc3ccc(C(C)(C)C#N)c(F)c3)(C3CCCC3)OC2=O)c1Cl (stereo not drawn) [A(97), 2-{4-[2-(5-{[5-Chloro-1-methyl-3-(trifluoromethyl)-1H-pyrazol-4-yl]methyl}-2-cyclopentyl-4-hydroxy-6-oxo-3,6-dihydro-2H-pyran-2-yl)ethyl]-2-fluorophenyl}-2-methylpropanenitrile] | 11
5 | O=C1CC(=O)OC(CCc2ccc(C(=O)O)c(F)c2)(C2CCCC2)C1 (stereo not drawn) [B(6), 4-[2-(2-Cyclopentyl-4,6-dioxotetrahydro-2H-pyran-2-yl)ethyl]-2-fluorobenzoic acid] | 12000
6 | CCc1cc(CCC2(C3CCCC3)CC(O)=C(Cc3nc4ncc(C)cn4n3)C(=O)O2)ccc1-c1ncco1 (stereo not drawn) [A(137), 6-Cyclopentyl-6-{2-[3-ethyl-4-(1,3-oxazol-2-yl)phenyl]ethyl}-4-hydroxy-2-[(6-methyl[1,2,4]triazolo[1,5-a]pyrimidin-2-yl)methyl]-5,6-dihydro-2H-pyran-2-one] | 300
7 | Cc1cc(C)n2nc(CC3=C(O)CC(CCc4ccc(O)c(C(F)(F)F)c4)(C4CCCC4)OC3=O)nc2n1 (stereo not drawn) [A(28), 6-Cyclopentyl-3-[(5,7-dimethyl[1,2,4]triazolo[1,5-a]pyrimidin-2-yl)methyl]-4-hydroxy-6-{2-[4-hydroxy-3-(trifluoromethyl)phenyl]ethyl}-5,6dihydro-2H-pyran-2-one] | 2
8 | Cc1cc(C)n2nc(CC3=C(O)CC(CCc4ccc(C5(C#N)CC5)cc4)(C4CCCC4)OC3=O)nc2n1 (stereo not drawn) [A(93), 1-[4(2-{2-Cyclopentyl-5-[(5,7-dimethyl[1,2,4]triazolo[1,5-a]pyrimidin-2-yl)methyl]-4-hydroxy-6-oxo-3,6-dihydro-2H-pyran-2-yl}ethyl)phenyl]cyclopropanecarbonitrile] | 6
9 | CCc1cc(CCC2(C3CCCC3)CC(O)=C(Cc3nc4ncccn4n3)C(=O)O2)ccc1-c1ncco1 (stereo not drawn) [A(136), 6-Cyclopentyl-6-{2-[3-ethyl-4-(1,3-oxazol-2-yl)phenyl]ethyl}-4-hydroxy-3-([1,2,4]triazolo[1,5-a]pyrimidin-2-ylmethyl)-5,6-dihydro-2H-pyran-2-one] | 3
10 | CCc1ccc(OC)c(CCC2(C3CCCC3)CC(=O)CC(=O)O2)n1 (stereo not drawn) [A(5), 6-Cyclopentyl-6-[2-(6-ethyl-3-methoxypyridin-2-yl)ethyl]dihydro-2H-pyran-2,4(3H)-dione] | 8600
11 | CCc1cc(CCC2(C3CCCC3)CC(O)=C(Cc3nc4nc(C)cc(C)n4n3)C(=O)O2)ccc1OCCN (stereo not drawn) [A(71)] | 9
12 | COc1cc(CO)c(F)cc1CCC1(C2CCCC2)CC(O)=C(Cc2nc3nc(C)cc(C)n3n2)C(=O)O1 (stereo not drawn) [A(80), 6-Cyclopentyl-3-[(5,7-dimethyl[1,2,4]triazolo[1,5-a]pyrimidin-2-yl)methyl]-6-{2-[5-fluoro-4-(hydroxymethyl)-2-methoxyphenyl]ethyl}-4-hydroxy-5,6-dihydro-2H-pyran-2-one] | 22
13 | COc1ccc(CCC2(C3CCCC3)CC(O)=C(Cc3nc4nc(C)cc(C)n4n3)C(=O)O2)cc1C(F)(F)F (stereo not drawn) [A(23), 6-Cyclopentyl-3-[(5,7-dimethyl[1,2,4]triazolo[1,5-a]pyrimidin-2-yl)methyl]-4-hydroxy-6-{2-[4-methoxy-3-(trifluoromethyl)phenyl]ethyl}-5,6-dihydro-2H-pyran-2-one] | 6
14 | CCc1cc(CCC2(C3CCCC3)CC(O)=C(Cc3nc4nc(C)cc(C)n4n3)C(=O)O2)ccc1OCCNC (stereo not drawn) [A(72), 6-Cyclopentyl-3-[(5,7-dimethyl[1,2,4]triazolo[1,5-a]pyrimidin-2-yl)methyl]-6-(2-{3-ethyl-4-[2-(methylamino)ethoxy]phenyl}ethyl)-4-hydroxy-5,6-dihydro-2H-pyran-2-one] | 8
15 | CCn1cc(CCC2(C3CCCC3)CC(O)=C(Cc3nc4nc(C)cc(C)n4n3)C(=O)O2)cn1 (stereo not drawn) [A(61), 6-Cyclopentyl-3[(5,7-dimethyl[1,2,4]triazolo[1,5-a]pyrimidin-2-yl)methyl]-6-[2-(1-ethyl-1H-pyrazol-4-yl)ethyl]-4-hydroxy-5,6-dihydro-2H-pyran-2-one] | 140
16 | CCOc1cnc(CC)cc1CCC1(C2CCCC2)CC(O)=C(Cc2nc3ncc(C)cn3n2)C(=O)O1 (single isomer, unassigned) [A(56), 6-Cyclopentyl-6-[2-(5-ethoxy-2-ethylpyridin-4-yl)ethyl]-4-hydroxy-3-[(6-methyl[1,2,4]triazolo[1,5-a]pyrimidin-2-yl)methyl]-5,6-dihydro-2H-pyran-2-one] | 4
17 | O=C1CC(=O)OC(CCc2ccc(C(=O)O)c(Cl)c2)(C2CCCC2)C1 (stereo not drawn) [B(10)] | 30000
18 | CCc1cc(CCC2(C3CCCC3)CC(O)=C(Cc3nc4nc(C)cc(C)n4n3)C(=O)O2)c(OC)cn1 (single isomer, unassigned) [A(38), 6-Cyclopentyl-3-[(5,7-dimethyl[1,2,4]triazolo[1,5-a]pyrimidin-2-yl)methyl]-6-[2-(2-ethyl-5-methoxypyridin-4-yl)ethyl]-4-hydroxy-5,6-dihydro-2H-pyran-2-one] | 3
19 | COc1cc(OC)c(CCC2(C3CCCC3)CC(O)=C(Cc3nc(-c4ccccn4)nn3C)C(=O)O2)cc1Cl (stereo not drawn) [B(16), 6-[2-(5-Chloro-2,4-dimethoxyphenyl)ethyl]-6-cyclopentyl-4-hydroxy-3-[(1-methyl-3-pyridin-2-yl-1H-1,2,4-triazol-5-yl)methyl]-5,6-dihydro-2H-pyran-2-one] | 53
20 | CCn1nc(C)c(CC2=C(O)CC(CCc3ccc(OC(C)C)c(Cl)c3)(C3CCCC3)OC2=O)c1C (stereo not drawn) [B(19), 6-[2-(3-chloro-4-isopropoxyphenyl)ethyl]-6-cyclopentyl-3-[(1-ethyl-3,5-dimethyl-1H-pyrazol-4-yl)methyl]-4-hydroxy-5,6-dihydro-2H-pyran-2-one] | 1100
21 | COC(=O)c1ccc(CCC2(C3CCCC3)CC(=O)CC(=O)O2)cc1Cl (stereo not drawn) [B(7)] | 7000
22 | CCn1cc(CC2=C(O)CC(CCc3ccc(C(C)(C)C#N)c(F)c3)(C3CCCC3)OC2=O)c(C)n1 (stereo not drawn) [A(95), 2-[4-(2-{2-Cyclopentyl-5-[(1-ethyl-3-methyl-1H-pyrazol-4-yl)methyl]-4-hydroxy-6-oxo-3,6-dihydro-2H-pyran-2-yl}ethyl)-2-fluorophenyl]-2-methylpropanenitrile] | 40
23 | Cc1cc(C)n2nc(CC3=C(O)CC(CCc4ccc(C(C)(C)O)c(Cl)c4)(C4CCCC4)OC3=O)nc2n1 (stereo not drawn) [B(37), 6-{2-[3-Chloro-4-(1-hydroxy-1-methylethyl)phenyl]ethyl}-6-cyclopentyl-3[(5,7-dimethyl[1,2,4]triazolo[1,5-a]pyrimidin-2-yl)methyl]-4-hydroxy-5,6-dihydro-2H-pyran-2-one] | 22
24 | Cc1cc(C)n2nc(CC3=C(O)CC(CCn4cc(Br)ccc4=O)(C4CCCC4)OC3=O)nc2n1 (stereo not drawn) [B(30), 5-Bromo-1-(2-{2-cyclopentyl-5-[(5,7-dimethyl[1,2,4]triazolo[1,5-a]pyrimidin-2-yl)methyl]-4-hydroxy-6-oxo-3,6-dihydro-2H-pyran-2-yl}ethyl)pyridin-2(1H)-one] | 1200
25 | CCc1cc(CCC2(C3CCCC3)CC(O)=C(Cc3nc4nc(C)cc(C)n4n3)C(=O)O2)ccc1CO (single isomer, unassigned; enantiomer 2) [A(115), Enantiomer 2 6-cyclopentyl-3-[(5,7-dimethyl[1,2,4]triazolo[1,5-a]pyrimidin-2-yl)methyl]-6-{2-[3-ethyl-4-(hydroxymethyl)phenyl]ethyl}-4-hydroxy-5,6-dihydro-2H-pyran-2-one] | 6
26 | Cc1nc(CC2=C(O)CC(CCc3ccc(C(C)(C)C#N)c(F)c3)(C3CCCC3)OC2=O)n(C)n1 (stereo not drawn) [A(84), 2-[4-(2-{2-Cyclopentyl-5-[(1,3-dimethyl-1H-1,2,4-triazol-5-yl)methyl]-4-hydroxy-6-oxo-3,6-dihydro-2H-pyran-2-yl}ethyl)-2-fluorophenyl]-2-methylpropanenitrile] | 72
27 | CCc1cc(CCC2(C3CCCC3)CC(O)=C(Cc3nc4nc(C)cc(C)n4n3)C(=O)O2)c2c(c1O)CCO2 (single isomer, unassigned; enantiomer 1) [A(12), Enantiomer 1 of 6-Cyclopentyl-3-[(5,7-dimethyl[1,2,4]triazolo[1,5-a]pyrimidin-2-yl)methyl]-6-[2-(5-ethyl-4-hydroxy-2,3-dihydro-1-benzofuran-7-yl)ethyl]-4-hydroxy-5,6-dihydro-2H-pyran-2-one] | 2
